{
  "source": "patent US9422239B1",
  "about": "“Dual PPAR-δ PPAR-γ agonists” (Auburn University, priority 2013, dated 2016)",
  "key": {"[1]": {"tested_on": "3T3-L1 adipocytes", "assay": "Lipid accumulation by oil red-o staining", "format": "cell-based", "conditions": "6 days, oil red-o stain", "procedure": "3T3L1 adipocytes were cultured and treated with the novel compounds for a period of 6 days. Lipid accumulation was determined by oil red-o staining, and measured the absorbance spectrophotometrically at a wavelength of 510 nm and standardized to total protein concentrations. Data from lipid accumulation studies were compared to cells treated with rosiglitazone (a full PPARγ agonist)."}, "[2]": {"target": "T1, PPARγ (AP2-PPRE) (Homo sapiens, UniProt P37231)", "T1 construct": "expressed in transfected cells; host or cells: HEK-293", "T1 sequence (P37231 1-505)": "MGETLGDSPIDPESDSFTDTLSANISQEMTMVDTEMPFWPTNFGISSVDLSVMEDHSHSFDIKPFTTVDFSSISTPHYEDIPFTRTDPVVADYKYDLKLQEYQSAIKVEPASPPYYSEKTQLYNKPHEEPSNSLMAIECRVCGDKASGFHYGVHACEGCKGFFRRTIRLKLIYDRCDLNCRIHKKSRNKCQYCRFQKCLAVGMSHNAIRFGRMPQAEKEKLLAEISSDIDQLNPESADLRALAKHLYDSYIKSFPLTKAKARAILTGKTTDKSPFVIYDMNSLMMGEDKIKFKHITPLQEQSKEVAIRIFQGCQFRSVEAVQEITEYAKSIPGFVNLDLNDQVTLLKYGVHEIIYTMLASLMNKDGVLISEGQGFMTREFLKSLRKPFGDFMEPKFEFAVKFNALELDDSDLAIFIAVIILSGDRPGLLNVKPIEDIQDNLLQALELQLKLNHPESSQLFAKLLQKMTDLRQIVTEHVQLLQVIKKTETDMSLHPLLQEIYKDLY", "T1 sequence (P19793 1-462 partner)": "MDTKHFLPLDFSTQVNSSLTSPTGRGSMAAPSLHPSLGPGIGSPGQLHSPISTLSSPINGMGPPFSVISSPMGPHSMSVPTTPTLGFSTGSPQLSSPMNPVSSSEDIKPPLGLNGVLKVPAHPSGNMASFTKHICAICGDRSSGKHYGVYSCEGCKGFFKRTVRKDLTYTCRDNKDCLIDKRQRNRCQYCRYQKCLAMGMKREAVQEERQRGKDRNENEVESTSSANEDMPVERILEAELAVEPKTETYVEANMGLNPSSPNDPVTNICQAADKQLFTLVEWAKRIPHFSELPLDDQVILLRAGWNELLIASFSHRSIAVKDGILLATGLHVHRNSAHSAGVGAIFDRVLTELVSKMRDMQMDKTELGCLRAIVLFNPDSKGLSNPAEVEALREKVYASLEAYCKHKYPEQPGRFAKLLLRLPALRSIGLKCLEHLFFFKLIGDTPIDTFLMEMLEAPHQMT", "assay": "AP2-PPRE luciferase assay in HEK-293 cells", "format": "cell-based", "conditions": "luciferase assay, HEK-293 cells, 10 μM", "excerpt": "(§1) To validate the specificity of the novel compounds towards activation of PPARγ/δ targets, we tested the compounds capacity to bind to select PPARγ/δ Peroxisome Proliferator Response Elements (PPRE). The PPRE are unique sites located in the promoter region where PPARs bind and transcriptionally activate the target genes. AP2-PPRE is the PPARγ target involved in adipocyte growth and differentiation. PDK4-PPRE is a PPARδ target involved in regulating energy metabolism in the cell. These PPREs were inserted into a PGL3 luciferase vectors containing CMV promoters (ADDGENE) using PCR. These vectors were co-transfected with RXR, PPARγ/PPARδ and p-galactosidase vectors into HEK-293 cells using Lipofectamine 2000 (Invitrogen). Relative light units (RLU) were measured using a Glomax Luminometer (Promega). Data were standardized to p-galactosidase activity using ONPG (Promega)."}, "[3]": {"target": "T2, PPARδ (PDK4-PPRE) (Homo sapiens, UniProt Q03181)", "T2 construct": "expressed in transfected cells; host or cells: HEK-293", "T2 sequence (Q03181 1-441)": "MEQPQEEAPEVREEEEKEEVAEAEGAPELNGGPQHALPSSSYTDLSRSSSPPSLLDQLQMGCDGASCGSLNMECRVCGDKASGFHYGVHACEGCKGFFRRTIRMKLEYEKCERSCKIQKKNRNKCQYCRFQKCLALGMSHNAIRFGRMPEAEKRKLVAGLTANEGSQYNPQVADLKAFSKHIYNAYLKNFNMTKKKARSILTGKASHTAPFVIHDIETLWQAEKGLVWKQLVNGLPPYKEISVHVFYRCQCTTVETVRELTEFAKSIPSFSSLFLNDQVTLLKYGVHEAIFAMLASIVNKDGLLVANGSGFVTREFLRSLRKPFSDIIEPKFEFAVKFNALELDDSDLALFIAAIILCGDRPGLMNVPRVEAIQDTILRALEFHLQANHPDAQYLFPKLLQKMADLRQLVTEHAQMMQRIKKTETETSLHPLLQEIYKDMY", "T2 sequence (P19793 1-462 partner)": "T1 sequence (P19793 1-462 partner)", "assay": "PDK4-PPRE luciferase assay in HEK-293 cells", "format": "cell-based", "excerpt": "as §1"}, "[4]": {"assay": "Heart size (heart weight to body weight ratio)", "format": "in vivo", "conditions": "10 mg/kg oral daily for 1 month, wild type and db/db mice", "procedure": "Diabetic db/db mice were fed a normal rodent chow diet. […] Mice were then weighed and their hearts were extracted and weighed. The heart weight of the mice compared to the body weight of the mice was then calculated based upon heart weight to body weight ratio."}, "[5]": {"tested_on": "db/db mice", "assay": "Hippocampal slice electrophysiology (LTP, PTP)", "format": "in vivo"}, "[6]": {"conditions": "in vivo; cited from earlier work"}, "[7]": {"assay": "Biodistribution by LC-Mass Spectral analysis", "conditions": "mice, 3 mg/kg (table); for concentration at 4 h: mouse, po, 3 mg/kg"}, "[8]": {"tested_on": "C2C12 skeletal muscle cells", "assay": "Mitochondrial biogenesis markers by quantitative RT-PCR", "format": "cell-based", "conditions": "4 days", "procedure": "Therefore, to test the effects of the novel compounds on mitochondrial biogenesis, C2C12 skeletal muscle cells were cultured and treated with the novel compounds for 4 days. Changes associated with markers for mitochondrial biogenesis were determined by quantitative real time PCR."}},
  "data": [
    {"smiles": "CC(C(=O)O)c1ccc(CNCc2ccc(Cl)c(Cl)c2)cc1", "note": "(stereo not shown) [Compound 4-23]", "values": [
      {"measurement": "Lipid accumulation", "setting": "[1]", "value": "less lipid accumulation"}
    ]},
    {"smiles": "CCOC(CNCc1ccc(C(F)(F)F)cc1)OCC", "note": "[Compound 3-121]", "values": [
      {"measurement": "Binding affinity for the AP2-PPRE", "setting": "[2]", "value": "less binding affinity"},
      {"measurement": "Binding affinity for the PDK4-PPRE", "setting": "[3]", "value": "less binding affinity"},
      {"measurement": "Lipid accumulation", "setting": "[1]", "value": "less lipid accumulation"},
      {"measurement": "Lipid accumulation", "setting": "[1]; listed as compound 3-121", "value": "insignificant induction of adiposity"}
    ]},
    {"smiles": "CN(CCOc1ccc(CC2SC(=O)NC2=O)cc1)c1ccccn1", "note": "(stereo not shown) [Rosiglitazone, rosiglitazone, reference compound]", "values": [
      {"measurement": "Heart size", "setting": "[4]", "value": "increase in heart size"},
      {"measurement": "Amelioration of LTP reduction", "setting": "[5]; ICV", "value": "> 50", "unit": "%"},
      {"measurement": "Change in the slope of fEPSP after sixty minutes of induction of LTP", "setting": "[5]; ICV", "value": "148.33±2.5", "unit": "%"},
      {"measurement": "fEPSP slope (LTP studies)", "setting": "[5]; oral", "value": "126±5.3", "unit": "%"},
      {"measurement": "Half-life", "setting": "[6]", "value": 4, "unit": "h"},
      {"measurement": "Concentration", "setting": "[7]; Brain, oral, 4 hours", "value": "Not Detected"},
      {"measurement": "concentration at 4 h", "setting": "[7]; adipose, Concentration", "value": 13, "unit": "ng/mL"},
      {"measurement": "concentration at 4 h", "setting": "[7]; adipose, Tissue Concentration", "value": 5, "unit": "ng/mL"},
      {"measurement": "concentration at 4 h", "setting": "[7]; adipose, Tissue Distribution", "value": 2.24, "unit": "ng/mL"},
      {"measurement": "concentration at 4 h", "setting": "[7]; blood, Concentration", "value": 247, "unit": "ng/mL"},
      {"measurement": "concentration at 4 h", "setting": "[7]; heart, Concentration", "value": 12.8, "unit": "ng/mL"},
      {"measurement": "concentration at 4 h", "setting": "[7]; heart, Tissue Concentration", "value": 2.12, "unit": "ng/mL"},
      {"measurement": "concentration at 4 h", "setting": "[7]; heart, Tissue Distribution", "value": 0.64, "unit": "ng/mL"},
      {"measurement": "concentration at 4 h", "setting": "[7]; liver, Concentration", "value": 250, "unit": "ng/mL"},
      {"measurement": "concentration at 4 h", "setting": "[7]; liver, Tissue Concentration", "value": 8.89, "unit": "ng/mL"},
      {"measurement": "concentration at 4 h", "setting": "[7]; liver, Tissue Distribution", "value": 4.95, "unit": "ng/mL"}
    ]},
    {"smiles": "Cc1cc(SCc2sc(-c3ccc(C(F)(F)F)c(F)c3)nc2C)ccc1OCC(=O)O", "note": "[GW0742, reference compound]", "values": [
      {"measurement": "Gene expression of mitochondrial markers", "setting": "[8]", "value": "increases"}
    ]},
    {"smiles": "COc1ccc(CN(CCN2C(=O)c3ccccc3C2=O)S(=O)(=O)c2c(C)cc(C)cc2C)cc1", "note": "[Compound 3-91]", "values": [
      {"measurement": "Binding affinity for the AP2-PPRE", "setting": "[2]", "value": "strong binding affinity"},
      {"measurement": "Binding affinity for the PDK4-PPRE", "setting": "[3]", "value": "less binding affinity"},
      {"measurement": "Lipid accumulation", "setting": "[1]", "value": "comparable to rosiglitazone"}
    ]}
  ]
}
